Test results reported in patent publication US20160090556A1, “PRODUCTS COMPRISING MALODOR REDUCTION MATERIALS” (The Procter & Gamble Company, priority 2014, published 2016).
Where two headings read alike, the source gives them in different places.

Key:
[1] = Blocker Index (BI) assigned by perfumers/expert graders on isovaleric acid swatches; parameters: species or system human; key: BI odor strength 0 (lowest, clean swatch) to 3 (highest)
Text: (§1) Blocker materials suitable for use in consumer products of the present invention are chosen for their ability to decrease malodor, while not interfering with perception of a fragrance. Material selection is done by assigning two indices to a test sample material from two reference scales in order to rank odor strengths. The two reference scales are the Fragrance Fidelity Index (FFI) scale and the Blocker Index (BI) scale. The FFI ranks the ability of the test sample material to impart a perceivable odor which could cause interference when combined with another fragrance and the BI ranks the ability of the test sample material to reduce malodor perception. The two methods for assigning the indices to a test sample on the FFI and the BI reference scales are given below.
(§2) The first step in the method for assigning a BI to a test sample material on the BI reference scale is to create the BI reference swatches. […] Fabric swatches for this test are white knit polycotton (4 inch×4 inch) swatches from EMC ordered as PC 50/50. The supplier is instructed to strip the swatches first, stripping involves washing twice with a fragrance-free detergent and rinsing three times.
The BI scale contains one clean swatch with no malodor applied. […] These solutions are pipetted to the middle of the swatches. […] After drying for 30 minutes in a vented hood, the swatches are wrapped in aluminum foil to prevent odor contamination to the treated swatch. A clean untreated swatch is also included as the lowest anchor point of reference for malodor strength on the BI scale. The BI reference scale swatches should be used within 0.5 to 12 hours and discarded after 12 hours. The swatches are used as scale anchor points when graders evaluate a test sample(s) and are assigned a Blocker Index (BI) as show in Table 12.
The perfumer/expert grader is asked to rank order swatches according to a scale between 0 and 3.
The reference swatches represent the 0, 1, 2, and 3 BIs on the BI reference scale, Table 12. The expert grader should familiarizes him/herself with the strength of the odor on the BI reference swatches by sniffing each one starting at 0 (the lowest odor strength) and ending at 3 (the highest odor strength). This should be done prior to evaluating the swatch treated with the test material.
To evaluate the BI, the test material is applied to a malodorous swatch to determine how well the test material blocks the malodor. […] After drying the malodorous swatch a known concentration of test material solution, between 1 ppm and 100 ppm is pipetted onto the malodorous swatch. […] It is sometimes necessary to evaluate several levels of the test material between about 1 and about 100 ppm to determine the BI.
At least two perfumers/expert graders are used to assign the BI to the test sample. […] The test sample swatch is assigned a BI at or between numbers on the BI in table.

[2] = Liquid dish neat product liquid-air partition coefficient; type: physicochemical
[3] = Fragrance Fidelity Index (FFI) assigned by perfumers/expert graders on fabric swatches; parameters: species or system human; key: FFI grade on reference scale anchored by 0, 1, 2, 3 swatches
Text: as §1
as §2, with “assigning an FFI” for “assigning a BI”, “to the” for “to a”, “test samples” for “test sample material”, “the FFI” for “the BI”
Pipette 13 μL of each of the three solutions into the middle of a clean swatch resulting in about a 1 cm diameter of the solution in the middle of the swatch. This will create a sensory scale of three swatches with three different odor levels based on the concentration of the solution pipetted onto the swatch. After drying for 30 minutes in a vented hood, the swatches are wrapped in aluminum foil to prevent odor contamination to the treated swatch. A clean untreated swatch is also included as the lowest anchor point of reference for odor strength on the FFI scale. The FFI reference scale swatches should be used within 0.5 to 12 hours and discarded after 12 hours. The swatches are used as scale anchor points when graders evaluate a test sample(s) and are assigned a Fragrance Fidelity Index (FFI) as show in Table 7.
The perfumer/expert panel is asked to rank order swatches according to a scale between 0 and 3.
The reference swatches represent the 0, 1, 2, and 3 FFIs on the FFI reference scale, Table 9. The expert grader should familiarize them self with the strength of the odor on the FFI reference swatches by sniffing each one starting at 0 (the lowest odor strength) and ending at 3 (the highest odor strength). This should be done prior to evaluating the test sample material treated swatch.
A clean swatch is treated with 13 μL of a known concentration of a test sample material resulting in an about 1 cm of the solution on the clean swatch. Just like the reference swatches, the test sample material swatch is dried in a vented hood for 30 minutes and then wrapped in aluminum foil to prevent contamination. The test material swatches and the FFI reference swatches should be made within 2 hours of each other. The test material swatch must be used within 0.5 to 12 hours and discarded after 12 hours.
At least two perfumers/expert graders are used to assign an FFI grade to a test sample. The perfumer/expert grader smells the test sample swatch by holding that swatch 1 inch from their nose with their nose centered over the area where the test sample was pipetted on to the fabric and then assigns the test sample an FFI grade using the FFI reference scale anchor swatches as references. In cases where the test sample material is graded greater than 3, the test material is not a blocker material or the concentration of the material needs to be lowered and reevaluated to determine if a lower level has a malodor blocker functionality.

[4] = Conc 10 ppm test material on isovaleric acid swatch
[5] = Conc 50 ppm test material on isovaleric acid swatch
[6] = class code letter within Comment Code
[7] = Conc 10 ppm test material on swatch
[8] = Conc 50 ppm test material on swatch
[9] = codes K/L of the Comment Code, Table 1

CC1(C)CCc2ccc(CCC=O)cc21 [Material 261]
BI [1, 4]: 1.8
BI [1, 5]: 1.3
Log of liquid dish neat product liquid-air partition coefficient (Comment Code K/L) [2, 6]: K (Log of liquid dish neat product liquid-air partition coefficient greater than or equal to −7)
Comment Code: Log of liquid dish neat product liquid-air partition coefficient ([2]; code letters K, L): K (Log of liquid dish neat product liquid-air partition coefficient greater than or equal to −7)
FFI [3, 7]: 0
FFI [3, 8]: 1.3

CC(=O)OC1CC2CC1C1CC=CC21 (stereo not drawn) [Material 281]
BI [1, 4]: 2.0
BI [1, 5]: 2.0
Log of liquid dish neat product liquid-air partition coefficient (Comment Code K/L) [2, 6]: K (Log of liquid dish neat product liquid-air partition coefficient greater than or equal to −7)
Comment Code: Log of liquid dish neat product liquid-air partition coefficient ([2]; code letters K, L): K (Log of liquid dish neat product liquid-air partition coefficient greater than or equal to −7)
FFI [3, 7]: 0
FFI [3, 8]: 0.5

COC(=O)OC1CC/C=C\CCC1 (stereo not drawn) [Material 1139]
BI [1, 4]: 2.0
BI [1, 5]: 2.7
FFI [3, 7]: 0
FFI [3, 8]: 1.0

C=C1CCC2OC2(C)CCC2C1CC2(C)C (stereo not drawn) [Material 1148]
BI [1, 5]: 2.3
Comment Code: Log of liquid dish neat product liquid-air partition coefficient ([2]; code letters K, L): K (Log of liquid dish neat product liquid-air partition coefficient greater than or equal to −7)
Comment Code: Log of liquid dish neat product liquid-air partition coefficient [2, 9]: K (Log of liquid dish neat product liquid-air partition coefficient greater than or equal to −7)
FFI [3, 8]: 0.5

CC1(C)C2CCC3(C2)C1C(=O)CCC3(C)C (stereo not drawn) [Material 1149]
BI [1, 4]: 1.5
BI [1, 5]: 2.3
Comment Code: Log of liquid dish neat product liquid-air partition coefficient ([2]; code letters K, L): K (Log of liquid dish neat product liquid-air partition coefficient greater than or equal to −7)
Comment Code: Log of liquid dish neat product liquid-air partition coefficient [2, 9]: K (Log of liquid dish neat product liquid-air partition coefficient greater than or equal to −7)
FFI [3, 7]: 0
FFI [3, 8]: 0.8

C=CC(C)=CCC=C(C)C [Material 524]
BI [1, 5]: 2.8
FFI [3, 8]: 0

CCCCCCCCCCCC(=O)OCC [Material 391]
BI [1, 5]: 2.2
Log of liquid dish neat product liquid-air partition coefficient (Comment Code K/L) [2, 6]: K (Log of liquid dish neat product liquid-air partition coefficient greater than or equal to −7)
FFI [3, 8]: 0.3

CCC(O)COC1CCCCC1C(C)(C)C (stereo not drawn) [Material 677]
BI [1, 4]: 2.3
BI [1, 5]: 2.0
Log of liquid dish neat product liquid-air partition coefficient (Comment Code K/L) [2]: K (Log of liquid dish neat product liquid-air partition coefficient greater than or equal to −7)
FFI [3, 7]: 0
FFI [3, 8]: 1.8
